Experimental data published in US20250257034A1, “INDOLE DERIVATIVES AS SEROTONERGIC AGENTS USEFUL FOR THE TREATMENT OF DISORDERS RELATED THERETO” (priority 2023, published 2025).
Where “and” joins values, the source holds several entries; their conditions need not be identical. Equal values may be shown once. Read-outs that look alike come from different tables or passages of the source.

Legend:
[1] = Pharmacokinetic studies in rat (i.v.); assay type: in vivo; conditions: rat plasma; for Apparent t1/2 / half-life: estimated from 2 points only; for AUC(0-t): read-out: AUC0-tlast; for half-life: read-out: Apparent t1/2 (converted)
Protocol: Animals: Male Sprague-Dawley rats (˜225-350 g) from Charles River Labs were acclimatized for a minimum of 5 days prior to start of study procedures. Body weights were recorded on the day of dosing.
Any abnormalities were documented including presence/absence of wet dog shakes/back muscle contractions (WDS/BMC).
Dosing: Formulations were administered intravenously (i.v.) via the tail vein using a 25 G needle connected to a 1 cc syringe.
The Compounds of Formula (I) were freshly prepared at the appropriate concentrations in 5% Tween-80 in saline.
Blood collection time (h): 0.25, 1 and 4.
Volume/time-point: ˜0.25 mL […] (saphenous vein).
Instrumentation: AB Sciex QTRAP 4000 or 6500 MS/MS system equipped with an LC system with a binary pump, a solvent degasser, a thermostatted column compartment and a multiplate autosampler.
Analysis software: Phoenix® WinNonlin® 8.3 (Pharsight, Certara, Mountainview, CA).
Analysis methods: non-compartmental analysis, linear up/log down trapezoidal rule.
PK parameters: t1/2 and AUC0-tlast were be estimated.
Volume/time-point: ˜0.25 mL (saphenous vein).
PK parameters: t1/2 and AUC0-tlast were estimated.

[2] = Human liver microsomes stability; assay type: in vitro ADME; conditions: Human liver microsomes; for half-life at 2 μM / microsomal CLint at 2 μM: 2 μM compound, 0.5 mg/mL microsomes, 1 mM NADPH; for half-life at 2 μM: 37° C; for microsomal CLint at 2 μM: read-out: CLint (μL/min/mg protein); for CLint scaled at 2 μM: read-out: Scaled-up CLint
Method in brief: (§1)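 Test compound at 2 μM final was incubated at 37° C with pooled human, male rat or male mouse liver microsomes in phosphate buffer with MgCl2 and 1 mM NADPH.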

[3] = Rat liver microsomes stability; assay type: in vitro ADME; conditions: Rat liver microsomes; for microsomal CLint at 2 μM / half-life at 2 μM / CLint scaled at 2 μM: male; for microsomal CLint at 2 μM: rat, liver microsomes, read-out: CLint (μL/min/mg protein); for microsomal CLint at 2 μM / half-life at 2 μM: 2 μM compound, 0.5 mg/mL microsomes, 1 mM NADPH; for half-life at 2 μM: 37° C; for CLint scaled at 2 μM: read-out: Scaled-up CLint
Method in brief: as §1

[4] = Mouse liver microsomes stability; assay type: in vitro ADME; conditions: Mouse liver microsomes; for microsomal CLint at 2 μM / half-life at 2 μM / CLint scaled at 2 μM: male; for microsomal CLint at 2 μM: mouse, liver microsomes, read-out: CLint (μL/min/mg protein); for microsomal CLint at 2 μM / half-life at 2 μM: 2 μM compound, 0.5 mg/mL microsomes, 1 mM NADPH; for half-life at 2 μM: 37° C; for CLint scaled at 2 μM: read-out: Scaled-up CLint
[5] = I-12 1.2 mg/kg i.v., individual rats R01-R03, 1.2 mg/kg
[6] = male, Sprague-Dawley, rat, plasma, iv, 1.2 mg/kg, I-12 1.2 mg/kg i.v., individual rats R01-R03
[7] = I-1 1.10 mg/kg i.v., individual rats R04-R06, 1.1 mg/kg
[8] = male, Sprague-Dawley, rat, plasma, iv, 1.1 mg/kg, I-1 1.10 mg/kg i.v., Mean ± SD
[9] = male, Sprague-Dawley, rat, plasma, iv, 1.1 mg/kg, I-1 1.10 mg/kg i.v., individual rats R04-R06

With `CCN(CC)CCc1c[nH]c2ccc(SC)cc12` [Compound I-12, N,N-Diethyl-2-(5-(methylthio)-1H-indol-3-yl)ethan-1-amine] the “Plasma concentration” value ([1]; I-12 1.2 mg/kg i.v., 0.25 h, individual rats R01-R03, 1.2 mg/kg) was 53.6 ng/mL and 72.4 ng/mL and 30.1 ng/mL, the “Plasma concentration” value ([1]; I-12 1.2 mg/kg i.v., 1 h, individual rats R01-R03, 1.2 mg/kg) was 36.4 ng/mL and 29.7 ng/mL and the “Plasma concentration” value ([1]; I-12 1.2 mg/kg i.v., 4 h, individual rats R01-R03, 1.2 mg/kg) was 3.88 ng/mL and 2.55 ng/mL and 6.48 ng/mL. For the same compound, the “AUC0-tlast” value [1, 5] was 97.8 ng·h/mL and 75.7 ng·h/mL, the “Apparent t1/2” value [1, 5] was 46.7 min and the concentration at 0.25 h ([1]; male, Sprague-Dawley, rat, plasma, iv, 1.2 mg/kg, I-12 1.2 mg/kg i.v., 0.25 h, Mean ± SD, read-out: Plasma concentration) was 52 ± 21.2 ng/mL. For the same compound, the concentration at 1 h ([1]; male, Sprague-Dawley, rat, plasma, iv, 1.2 mg/kg, I-12 1.2 mg/kg i.v., 1 h, Mean ± SD, read-out: Plasma concentration) was 31.2 ± 4.6 ng/mL, the concentration at 1 h ([1]; male, Sprague-Dawley, rat, plasma, iv, 1.2 mg/kg, I-12 1.2 mg/kg i.v., 1 h, individual rats R01-R03, read-out: Plasma concentration) was 27.6 ng/mL and the concentration at 4 h ([1]; male, Sprague-Dawley, rat, plasma, iv, 1.2 mg/kg, I-12 1.2 mg/kg i.v., 4 h, Mean ± SD, read-out: Plasma concentration) was 4.3 ± 2 ng/mL. For the same compound, the AUC(0-t) ([1]; male, Sprague-Dawley, rat, plasma, iv, 1.2 mg/kg, I-12 1.2 mg/kg i.v., Mean ± SD) was 84.7 ± 11.6 ng·h/mL, the half-life [1, 6] was 60.6 min and the AUC(0-t) [1, 6] was 80.6 ng·h/mL. For the same compound, the half-life ([1]; male, Sprague-Dawley, rat, plasma, iv, 1.2 mg/kg, I-12 1.2 mg/kg i.v., mean (n = 2)) was 53.6 min, the “Predicted hepatic CL” value [2] was 15.84 mL/min/kg and the half-life at 2 μM [2] was 25.8 min. For the same compound, the microsomal CLint at 2 μM [2] was 53.8 µL/min/mg, the CLint scaled at 2 μM [2] was 67.5 mL/min/kg and the “Predicted hepatic CL” value [3] was 30.14 mL/min/kg. The microsomal CLint at 2 μM [3] was 37 µL/min/mg, the half-life at 2 μM [3] was 37.4 min and the CLint scaled at 2 μM [3] was 66.4 mL/min/kg. The “Predicted hepatic CL” value [4] was 82.50 mL/min/kg, the microsomal CLint at 2 μM [4] was 226 µL/min/mg and the half-life at 2 μM [4] was 6.13 min. It also gave a CLint scaled at 2 μM [4] of 990 mL/min/kg.
In the case of `[2H]C([2H])([2H])N(CCc1c[nH]c2ccc(SC)cc12)C([2H])([2H])[2H]` [Compound I-1, N,N-Bis(methyl-d3)-2-(5-(methylthio)-1H-indol-3-yl)ethan-1-amine], the “Plasma concentration” value ([1]; I-1 1.10 mg/kg i.v., 0.25 h, individual rats R04-R06, 1.1 mg/kg) is reported as 15.7 ng/mL and 16.9 ng/mL, the “Plasma concentration” value ([1]; I-1 1.10 mg/kg i.v., 1 h, individual rats R04-R06, 1.1 mg/kg) is reported as 0.835 ng/mL and 0.354 ng/mL and 0.298 ng/mL and the “Plasma concentration (ng/mL)” value ([1]; I-1 1.10 mg/kg i.v., 4 h, individual rats R04-R06) is reported as “BLQ (BLQ denotes below the lower limit of quantitation (0.5 ng/mL))”. The “AUC0-tlast” value [1, 7] was 10.9 ng·h/mL and 12.0 ng·h/mL, the “Apparent t1/2” value [1, 7] was 8.22 min and 7.74 min and the concentration at 0.25 h ([1]; male, Sprague-Dawley, rat, plasma, iv, 1.1 mg/kg, I-1 1.10 mg/kg i.v., 0.25 h, Mean ± SD, read-out: Plasma concentration) was 16.4 ± 0.624 ng/mL. The concentration at 0.25 h ([1]; male, Sprague-Dawley, rat, plasma, iv, 1.1 mg/kg, I-1 1.10 mg/kg i.v., 0.25 h, individual rats R04-R06, read-out: Plasma concentration) was 16.6 ng/mL, the concentration at 1 h ([1]; male, Sprague-Dawley, rat, plasma, iv, 1.1 mg/kg, I-1 1.10 mg/kg i.v., 1 h, Mean ± SD, read-out: Plasma concentration) was 0.496 ± 0.295 ng/mL and the half-life [1, 8] was 8.82 ± 1.44 min. It also gave an AUC(0-t) [1, 8] of 11.3 ± 0.587 ng·h/mL, a half-life [1, 9] of 10.4 min and an AUC(0-t) [1, 9] of 11.1 ng·h/mL. For the same compound, the “Predicted hepatic CL” value [2] was 19.31 mL/min/kg, the half-life at 2 μM [2] was 6.04 min and the microsomal CLint at 2 μM [2] was 230 µL/min/mg. The CLint scaled at 2 μM [2] was 288 mL/min/kg, the “Predicted hepatic CL” value [3] was >50.17 mL/min/kg and the microsomal CLint at 2 μM [3] was > 307 µL/min/mg. The half-life at 2 μM [3] was < 4.51 min, the CLint scaled at 2 μM [3] was > 550 mL/min/kg and the “Predicted hepatic CL” value [4] was 81.96 mL/min/kg. The microsomal CLint at 2 μM [4] was 210 µL/min/mg, the half-life at 2 μM [4] was 6.61 min and the CLint scaled at 2 μM [4] was 918 mL/min/kg.
